Our source for the EC50 values is ChEMBL document CHEMBL1149511, “Tri-substituted triazoles as potent non-nucleoside inhibitors of the HIV-1 reverse transcriptase” (Bioorg Med Chem Lett, 2006).

Common to all, as to assay type: functional, cell-based
Assay [1] concerns HeLa. The assay can be described thus: Antiviral activity against HIV1 K103N-Y181C mutant in HeLa-JC53 cells.
Assay [2] deals with HeLa. The assay can be described thus: Antiviral activity against wild type HIV1 in HeLa-JC53 cells. The conditions noted are these: Homo sapiens.
For assay [3], the system named is HeLa. Briefly: Antiviral activity against HIV1 Y188L mutant in HeLa-JC53 cells.

The term EC50 denotes the concentration that produces a half-maximal response. Read a high EC50 as a less potent agent.

As for `Cc1ccc(NC(=O)CSc2nnc(C)n2-c2ccc(C(F)(F)F)cc2)c(Cl)c1`, the results for the EC50 in assay [1] and in assay [2] were 0.23 µM and 0.019 µM, respectively.

As for `CCc1nnc(SCC(=O)Nc2ccc(C)cc2Br)n1-c1ccc(C)cc1`, the EC50 in assay [1] stood at 2.5 µM; in assay [2], 0.0001 µM. `Cc1ccc(-n2c(C)nnc2SCC(=O)Nc2ccccc2Br)c2ccccc12`: the EC50 in assay [1] is 0.014 µM; in assay [3] it was 0.069 µM; in assay [2] it was 0.0006 µM.

With `Cc1ccc(-n2c(C)nnc2SCC(=O)Nc2ccccc2Cl)cc1`, the EC50 in assay [1] amounted to 0.15 µM; in assay [2] it was 0.0007 µM. Consider `Cc1ccc(-n2c(C)nnc2SCC(=O)Nc2ccc(C)cc2Br)cc1`, for which the EC50 in assay [1] is 0.1 µM; in assay [2] it was 0.0004 µM. For the molecule `COc1ccc(-n2c(C)nnc2SCC(=O)Nc2ccccc2Br)c2ccccc12`, the EC50 in assay [1] turned out to be 0.093 µM; in assay [3] it was 0.46 µM; in assay [2], 0.0007 µM. Turning to `Cc1ccc(-n2c(C)nnc2SCC(=O)Nc2ccc(C(C)C)cc2Br)cc1`, the EC50 in assay [1] is over 10 µM; in assay [2] it was 0.14 µM.

`Cc1ccc(-n2c(C)nnc2SCC(=O)Nc2cccc(C)c2C)cc1`: the EC50 in assay [1] is over 10 µM; in assay [2], 0.06 µM. Consider `Cc1cc(C)c2ccccc2c1-n1c(C)nnc1SCC(=O)Nc1ccccc1Br`, for which the EC50 in assay [1] stood at 0.07 µM; in assay [3], 0.089 µM; in assay [2], 0.001 µM. As for `Cc1ccc(-n2c(SCC(=O)Nc3ccc(C)cc3Br)nnc2C(F)(F)F)cc1`, the EC50 turned out to be 1.1 µM in assay [1] and 0.0005 µM in assay [2]. On the same counts, the results for `COC(=O)c1ccc(NC(=O)CSc2nnc(C)n2-c2ccc(C)cc2)c(Cl)c1` are 0.12 µM and 0.0004 µM.

For the molecule `Cc1ccc(-n2c(C)nnc2SCC(=O)Nc2cccc(Cl)c2Cl)cc1`, the EC50 in assay [1] came to 0.11 µM; in assay [2], 0.0001 µM.

As for `O=C1Nc2ccc(Cl)cc2[C@@](C#CC2CC2)(C(F)(F)F)O1` [EFAVIRENZ], the EC50 in assay [1] came out at 0.011 µM; in assay [3], 0.073 µM; in assay [2] it was 0.0004 µM.

On to `Cc1ccc(-n2c(C)nnc2SCC(=O)Nc2ccccc2C(F)(F)F)cc1`, for which the EC50 in assay [1] is over 10 µM; in assay [2], 0.007 µM. For `Cc1ccc(-n2c(C)nnc2SCC(=O)Nc2ccc(Oc3ccccc3)cc2)cc1`, in that order: over 10 µM and 1.1 µM. Regarding `CCc1ccc(-n2c(C)nnc2SCC(=O)Nc2ccc(C)cc2Cl)c2ccccc12`, the EC50 is 0.032 µM in assay [1], 0.11 µM in assay [3] and 0.001 µM in assay [2]. On the same counts, the results for `Cc1ccc(NC(=O)CSc2nnc(C)n2-c2ccccc2)c(Br)c1` are 1.3 µM, over 10 µM and 0.1 µM.

As for `Cc1ccc(-n2cnnc2SCC(=O)Nc2ccc(C)cc2Br)cc1`, the EC50 in assay [1] is over 10 µM; in assay [2], 0.07 µM. On the same counts, the results for `Cc1ccc(-n2c(C)nnc2SCC(=O)Nc2ccc(C#N)cc2Cl)cc1` are 0.9 µM and 0.003 µM. On the same counts, the results for `Cc1ccc(-n2c(C)nnc2SCC(=O)Nc2ccc(OC(F)(F)F)cc2Br)cc1` are over 10 µM and 0.058 µM. For `Cc1ccc(-n2c(C)nnc2SCC(=O)Nc2ccc(Cl)cc2)cc1`, in that order: over 10 µM and 0.4 µM.

For `Cc1ccc(-n2c(C)nnc2SCC(=O)Nc2cccc(Cl)c2)cc1`, the EC50 in assay [1] and in assay [2] was over 10 µM each time. As to `Cc1ccc(-n2c(C)nnc2SCC(=O)Nc2ccc(C)cc2Cl)cc1`, the EC50 in assay [1] was 0.17 µM; in assay [2] it was 0.0009 µM. In assay [1], `Cc1ccc(-n2c(SCC(=O)Nc3ccc(C)cc3Br)nnc2C(C)C)cc1` registered an EC50 of over 10 µM. With `CSc1ccccc1NC(=O)CSc1nnc(C)n1-c1ccc(C)cc1`, the figures for the EC50 in assay [1] and in assay [2] were 0.12 µM and 0.0006 µM, respectively. For `Cc1ccc(NC(=O)CSc2nnc(C)n2-c2ccc(F)cc2)c(Cl)c1`, in that order: over 10 µM and 2.3 µM. In turn, `Cc1ccc(-n2c(CO)nnc2SCC(=O)Nc2ccc(C)cc2Br)cc1` returned an EC50 in assay [1] of over 10 µM.

For `CNCc1nnc(SCC(=O)Nc2ccc(C)cc2Br)n1-c1ccc(C)cc1`, in assay [1], the EC50 is over 10 µM. The same measure, in the same setting: then `CSCc1nnc(SCC(=O)Nc2ccc(C)cc2Br)n1-c1ccc(C)cc1`, with over 10 µM. Still for that read-out and setting: next, `Cc1ccc(-n2c(O)nnc2SCC(=O)Nc2ccc(C)cc2Br)cc1`: over 10 µM. Turning to `Cc1ccc(-n2c(C)nnc2SCC(=O)Nc2ccc(C)cc2Cl)c(C)c1`, the EC50 in assay [1] was 0.06 µM; in assay [2], 0.0001 µM.

In turn, `Cc1ccc(-n2c(SCC(=O)Nc3ccc(C)cc3Br)nnc2C2CC2)cc1` gave an EC50 in assay [1] of over 10 µM. Consider `Cc1nnc(SCC(=O)Nc2ccccc2Br)n1-c1cccc2ccccc12`, for which the results for the EC50 in assay [3] and in assay [2] were 0.72 µM and 0.002 µM, respectively. On the same counts, the results for `Cc1cc2cccc(C)c2c(-n2c(C)nnc2SCC(=O)Nc2ccccc2Br)c1C` are 0.2 µM and 0.003 µM.

For the molecule `Cc1ccc(-n2c(C)nnc2SCC(=O)Nc2ccccc2Br)cc1`, the EC50 was 0.076 µM in assay [1] and 0.0004 µM in assay [2]. Turning to `Cc1ccc2c(C)cccc2c1-n1c(C)nnc1SCC(=O)Nc1ccccc1Br`, the EC50 turned out to be 0.33 µM in assay [3] and 0.0003 µM in assay [2]. In the case of `Cc1ccc(-n2c(C)nnc2SCC(=O)Nc2ccccc2-c2ccccc2)cc1`, the EC50 in assay [1] and in assay [2] was over 10 µM throughout. Turning to `Cc1ccc(-n2c(C)nnc2SCC(=O)Nc2ccccc2I)cc1`, the EC50 in assay [1] came to 0.22 µM; in assay [2], 0.0005 µM. On the same counts, the results for `Cc1ccc(NC(=O)CSc2nnc(C)n2-c2ccccc2Cl)c(Cl)c1` are 0.1 µM and 0.008 µM. As for `Cc1ccc2cccc(-n3c(SCC(=O)Nc4ccc(S(N)(=O)=O)cc4Cl)nnc3C(F)(F)F)c2n1`, the results for the EC50 in assay [3] and in assay [2] were 0.022 µM and 0.0006 µM, respectively. As to `Cc1nnc(SCC(=O)Nc2ccc(S(N)(=O)=O)cc2Cl)n1-c1cc(Br)cc2cccnc12`, the figures for the EC50 in assay [3] and in assay [2] were 0.19 µM and 0.0008 µM, respectively. `COCc1nnc(SCC(=O)Nc2ccc(C)cc2Br)n1-c1ccc(C)cc1`: the EC50 in assay [1] is over 10 µM.

For `Cc1ccc2cccc(-n3c(C)nnc3SCC(=O)Nc3ccc(S(N)(=O)=O)cc3Cl)c2n1`, the EC50 in assay [3] came out at 0.39 µM; in assay [2], 0.001 µM. Consider `CCc1ccc(-n2c(C)nnc2SCC(=O)Nc2ccc(C)cc2Cl)cc1`, for which the EC50 turned out to be 0.06 µM in assay [1] and 0.0002 µM in assay [2].

With `Cc1ccc2c(C)ccc(-n3c(C)nnc3SCC(=O)Nc3ccc(S(N)(=O)=O)cc3Cl)c2n1`, the EC50 in assay [3] stood at 0.015 µM; in assay [2] it was 0.0006 µM.

In the case of `Cc1ccc2cccc(C)c2c1-n1c(C)nnc1SCC(=O)Nc1ccccc1Br`, the EC50 in assay [3] is 0.48 µM; in assay [2], 0.001 µM.

Regarding `Cc1cc2c(C)cccc2c(-n2c(C)nnc2SCC(=O)Nc2ccccc2Br)c1C`, the EC50 in assay [3] was 0.16 µM; in assay [2] it was 0.0008 µM. Take `Cc1ccc2cc(Cl)cc(-n3c(C)nnc3SCC(=O)Nc3ccc(S(N)(=O)=O)cc3Cl)c2n1`: the EC50 in assay [3] turned out to be 0.1 µM; in assay [2] it was 0.002 µM. For `Cc1nnc(SCC(=O)Nc2ccc(S(N)(=O)=O)cc2Cl)n1-c1cccc2ccccc12`, in that order: 0.19 µM and 0.0005 µM. With `NS(=O)(=O)c1ccc(NC(=O)CSc2nnc(C(F)(F)F)n2-c2cccc3cccnc23)c(Cl)c1`, the EC50 is 0.18 µM in assay [3] and 0.002 µM in assay [2].
